Assay type in all cases: cell-based
Data set [1] has as its system AGS cell strain. Put plainly: Measurement of apoptosis (Annexin V staining, FACS). The settings on record: for Relative Apoptotic cell: mimic 10 nM, 10 uM 5-FU 24 h after transfection, then 48 hours, Annexin V, relative to scrambled control (=1), n=9; for effect on cell growth and apoptosis (summary statement): mimics transfected to AGS, tumor cell strain not infected with EBV. As to the method: Immediately after the AGS cell strain, which is an EBV-negative cell strain, was divided was divided into a 6-well plate such that 2×10^5 AGS cells were allocated to each well, a synthesized miRNA (10 nM) was transfected by using G-fectin and the resulting mixture was cultured at 37 t in an incubatorTwenty four hours after the transfection, 10 uM of 5-FU was treated and the resulting mixture was cultured in an incubator at 37° C. for 48 hours. The cells were detached by using Trypsin-EDTA and washed with PBS two times. Afterwards, the cells were treated with a PE Annexin V Apoptosis Detection Kit and the changed ratio of apoptotic cell was investigated by FACS (FIG. 7).
Immediately after the AGS cell strain, which is an EBV-negative cell strain, is divided into a 6-well plate such that 2×10^5 AGS cells were allocated to each well, a synthesized miRNA (10 nM) was transfected by using G-fectin and the resulting mixture was cultured at 37° C. Twenty four hours after the transfection, 10 uM of 5-FU, which is an anti-cancer agent, was treated and the resulting mixture was cultured in an incubator at 37° C. for 48 hours. The cells were detached by using Trypsin-EDTA and washed with PBS two times. Afterwards, the cells were treated with a PE Annexin V Apoptosis Detection Kit and the ratio of cells where apoptosis took place was measured by FACS.

In data set [2] the test system is AGS cell strain. Nature of the data set: Effect on cell cycle (propidium iodide staining, FACS, sub G1). The settings on record: for Relative Sub G1: mimic 10 nM, 10 uM 5-FU 24 h after transfection, then 48 hours, relative to scrambled control (=1). As to the method:
The AGS cells were divided into a 96-well plate such that 2×10^5 AGS cells were allocated to each well, and synthesized miRNAs (10 nM) were transfected and cultured at 37° C. in an incubator. Twenty four hours after the transfection, 10 uM of 5-FU, which is an anti-cancer agent, was treated in one case or not treated in another case, and then the resulting mixture was cultured in an incubator at 37° C. for 48 hours. The cells were detached by using Trypsin-EDTA and washed with PBS two times.
Immediately after the AGS cell strains, which are EBV-negative cell strains, were divided into a 6-well plate such that 2×10^5 AGS cells were allocated to each well, a synthesized miRNA (10 nM) was transfected by using G-fectin and cultured at 37° C. in an incubator. Twenty four hours after the transfection, 10 uM of 5-FU was treated and the resulting mixture was cultured at 37° C. in an incubator for 48 hours. The cells were detached by using Trypsin-EDTA and washed with PBS two times. Afterwards, DNA was stained by propidium iodide staining and the ratio of cells where cell cycle was changed was investigated by FACS.

Data set [3] relates to AGS cell strain. Put plainly: Cell growth test (CCK-8 assay) after transfection of BART miRNA mimics. The settings on record: for Relative Cell Growth: relative to scrambled control (=1). As to the method:
An AGS cell strain (Korean Cell Line Bank), which is a stomach cancer cell strain, was cultured in an RPMI1640 (Gibco) culture medium including 10% fetal bovine serum. Mature type synthesized BART miRNAs were transfected to the AGS cell strain by using G-fectin (Genolution) according to a protocol of the manufacture.
To investigate the effect of individual EBV BART miRNAs on the AGS cell strain, the synthesized miRNAs were transfected to the AGS cell strain and, after 72 hours, cells were counted by CCK-8 assay.
Immediately after the AGS cell strain, which is an EBV-negative cell strain, was divided into 96-well plate having 1×10^3 cells/well, a synthesized miRNA (10 nM) was transfected by using G-fectin. After the transfection, according to the experimental objective, the cells were cultured at 37° C. in an incubator, and then CCK-8 was divided among the wells by allocating 10 μl of CCK-8 to each well and the resulting mixture was cultured in an incubator at 37° C. for two hours. Then, the light absorbance was measured with an ELISA measuring instrument.
By the method described in Example 3, miR-BART5-5p mimic or miR-BART15-3p mimic (10 nM) were transfected to the AGS cell strain, and the effect thereof on cell growth was investigated over time.
miR-BART5-5p, miR-BART15-3p, and miR-BART20-3p were transfected to the AGS cell strain (1×10^3 cells/well) in a concentration of 1, 3, 10, and 30 nM, and the effect on cell growth was investigated. Immediately after the AGS cell strain was divided into a 96-well plate such that 1×10^3 AGS cells were allocated to each well, a synthesized miRNA was transfected by using G-fectin. Seventy two hours after the transfection, CCK-8 was divided among the wells by allocating 10 μl of CCK-8 to each well, and the resulting mixture was cultured at 37° C. in an incubator for two hours.
(Tetrazolium dyes change colour on reduction, which living cells bring about.)

The mark [4] stands for this setting: mimic 10 nM, 72 hours after transfection, n=9.
[5] abbreviates: AGS, mimic 10 nM in combination with 10 uM 5-FU.

With “BART1-3p: EBV BART miRNA mimic, double stranded RNA; sense SEQ NO: 11, antisense SEQ NO: 12 (sense UAGCACCGCUAUCCACUAUGUC; antisense GACAUAGUGGAUAGCGGUGCUA; chemistry not given here)”, the “Relative Apoptotic cell” value in data set [1] (AGS) is reported as 0.9231. Moreover, the “Relative Sub G1” value in data set [2] amounted to 0.7947. For the same substance, the “Relative Cell Growth” value in data set [3] (setting [4]) is given as 1.201.

Take “BART1-5p: EBV BART miRNA mimic, double stranded RNA; sense SEQ NO: 9, antisense SEQ NO: 10 (sense UCUUAGUGGAAGUGACGUGCUGUG; antisense CACAGCACGUCACUUCCACUAAGA; chemistry not given here)”: the “Relative Apoptotic cell” value in data set [1] (AGS) is recorded as 1.08; in data set [1] (AGS, listed as 1-5p), “significantly higher”. For the same substance, in data set [1], the “effect on cell growth and apoptosis (summary statement)” value (“effect on cell growth and apoptosis” for short) was “inhibit cell growth and promote apoptosis”. Moreover, the “Relative Sub G1” value in data set [2] is 0.8028. Further, the “Relative Cell Growth” value in data set [3] (setting [4]) is recorded as 1.141.

Take “BART2-3p: EBV BART miRNA mimic, double stranded RNA; sense SEQ NO: 87, antisense SEQ NO: 88 (sense AAGGAGCGAUUUGGAGAAAAUAAA; antisense UUUAUUUUCUCCAAAUCGCUCCUU; chemistry not given here)”: the “Relative Apoptotic cell” value in data set [1] (AGS) was 1.062; in data set [1] (AGS, listed as 2-3p), “significantly higher”. For the same substance, the “effect on cell growth and apoptosis” value in data set [1] is “inhibit cell growth and promote apoptosis”. Moreover, the “Relative Sub G1” value in data set [2] was 1.178. Also, the “Relative Cell Growth” value in data set [3] (setting [4]) is 1.433.

For the substance “BART2-5p: EBV BART miRNA mimic, double stranded RNA; sense SEQ NO: 85, antisense SEQ NO: 86 (sense UAUUUUCUGCAUUCGCCCUUGC; antisense GCAAGGGCGAAUGCAGAAAAUA; chemistry not given here)”, the “Relative Apoptotic cell” value in data set [1] (AGS) was determined as 1.082. Moreover, the “Relative Sub G1” value in data set [2] was found to be 1.092. The “Relative Cell Growth” value in data set [3] (setting [4]) turned out to be 1.085.

As to “BART3-3p: EBV BART miRNA mimic, double stranded RNA; sense SEQ NO: 3, antisense SEQ NO: 4 (sense CGCACCACUAGUCACCAGGUGU; antisense ACACCUGGUGACUAGUGGUGCG; chemistry not given here)”, in data set [1] (AGS), the “Relative Apoptotic cell” value amounted to 1.111. For the same substance, the “Relative Sub G1” value in data set [2] is on record as 0.9648. Further, the “Relative Cell Growth” value in data set [3] (setting [4]) is on record as 1.135.

For the substance “BART3-5p: EBV BART miRNA mimic, double stranded RNA; sense SEQ NO: 1, antisense SEQ NO: 2 (sense ACCUAGUGUUAGUGUUGUGCU; antisense AGCACAACACUAACACUAGGU; chemistry not given here)”, in data set [1] (AGS), the “Relative Apoptotic cell” value turned out to be 1.016. Further, the “Relative Sub G1” value in data set [2] amounted to 0.8224. Further, the “Relative Cell Growth” value in data set [3] (setting [4]) is listed as 1.272.

For the substance “BART4-3p: EBV BART miRNA mimic, double stranded RNA; sense SEQ NO: 7, antisense SEQ NO: 8 (sense CACAUCACGUAGGCACCAGGUGU; antisense ACACCUGGUGCCUACGUGAUGUG; chemistry not given here)”, the “Relative Apoptotic cell” value in data set [1] (AGS) is 1.133; in data set [1] (AGS, listed as 4-3p), “significantly higher”. For the same substance, the “effect on cell growth and apoptosis” value in data set [1] is “inhibit cell growth and promote apoptosis”. Further, in data set [2], the “Relative Sub G1” value came out at 0.755. Moreover, the “Relative Cell Growth” value in data set [3] (setting [4]) turned out to be 1.065.

On to “BART4-5p: EBV BART miRNA mimic, double stranded RNA; sense SEQ NO: 5, antisense SEQ NO: 6 (sense GACCUGAUGCUGCUGGUGUGCU; antisense AGCACACCAGCAGCAUCAGGUC; chemistry not given here)”, for which the “Relative Apoptotic cell” value in data set [1] (AGS) is reported as 1.204; in data set [1] (AGS, listed as miR-BART4-5p) it was “significantly higher”. For the same substance, the “effect on cell growth and apoptosis” value in data set [1] is “inhibit cell growth and promote apoptosis”. Further, the “Relative Sub G1” value in data set [2] is listed as 1.236; in data set [2] (listed as miR-BART4-5p) it was “increased”. For the same substance, the “Relative Cell Growth” value in data set [3] (setting [4]) is on record as 0.9348.

For the substance “BART5-3p: EBV BART miRNA mimic, double stranded RNA; sense SEQ NO: 19, antisense SEQ NO: 20 (sense GUGGGCCGCUGUUCACCU; antisense AGGUGAACAGCGGCCCAC; chemistry not given here)”, the “Relative Apoptotic cell” value in data set [1] (AGS) came out at 1.17. The “effect on cell growth and apoptosis” value in data set [1] is “inhibit cell growth and promote apoptosis”. For the same substance, the “Relative Sub G1” value in data set [2] came out at 0.9486. Also, the “Relative Cell Growth” value in data set [3] (setting [4]) was found to be 0.9583.

For “BART5-5p: EBV BART miRNA mimic, double stranded RNA; sense SEQ NO: 17, antisense SEQ NO: 18 (sense CAAGGUGAAUAUAGCUGCCCAUCG; antisense CGAUGGGCAGCUAUAUUCACCUUG; chemistry not given here)”, the “ratio of early apoptotic cell” value in data set [1] (setting [5]) is reported as “increased”; in data set [1] (AGS, mimic 10 nM treated alone) it was “increased”. Further, the “ratio of late apoptotic cell” value in data set [1] (setting [5]) was “increased”; in data set [1] (AGS, mimic 10 nM treated alone), “increased”. The “degree of apoptosis, combination with 5-FU versus sum of single treatments” value in data set [1] (AGS, mimic 10 nM plus 10 uM 5-FU) is “synergetic effect”. The “Relative Apoptotic cell” value in data set [1] (AGS) is on record as 1.325; in data set [1] (AGS, listed as 5-5p), “significantly higher”. For the same substance, the “effect on cell growth and apoptosis” value in data set [1] was “inhibit cell growth and promote apoptosis”. For the same substance, the “ratio of sub G1 after the 5-FU treatment” value in data set [2] (mimic 10 nM plus 10 uM 5-FU (Example 6)) is listed as “greatly increased”. The “Relative Sub G1” value was 2.111 in data set [2] and “increased” in data set [2] (listed as 5-5p). Also, the “cell growth depending on mimic concentration (onset of inhibition)” value in data set [3] (1, 3, 10 and 30 nM, 72 hours after transfection) was “a tendency to inhibit cell growth beginning at 10 nM”. In addition, the “Relative Cell Growth” value in data set [3] (setting [4]) is 0.5231; in data set [3] (mimic 10 nM, 72 hours after transfection, n=9, listed as miR-BART5-5p), “inhibited cell growth”. Besides, the “cell growth over time” value in data set [3] (mimic 10 nM, depending on treatment time) is “greatly decreased cell growth”.

The values above are taken from patent US9243247B2, “Composition for promoting apoptosis or inhibiting cell growth, comprising epstein-barr virus microrna” (Catholic University Industry Academic Cooperation Foundation, priority 2011, dated 2016).
